Results reported in US20090118135A1, “METHODS AND COMPOUNDS FOR REGULATING APOPTOSIS” (The Burnham Institute, priority 2007, published 2009).

Columns and labels:
[1] = system: HeLa Tet-On-Bcl-B (HTO2) cells; assay: Cell viability (ATPlite) in HeLa Tet-On-Bcl-B cells with or without doxycycline; assay type: cell-based; conditions: result in words
Protocol: (§1) FIG. 24A is a photograph of a blot wherein HeLa Tet-On (HTO1) and HeLa Tet-On-Bcl-B (HTO2) cells were treated with or without doxycycline (dox) for 24 h to induce their tetracycline-responsive promoters. Protein lysates were collected, and immunoblotting was used to analyze Bcl-B and Hsc70 (for loading control) expression. In FIG. 24B the cells were treated with or without doxycycline for 24 h, and then with staurosporine at the indicated concentrations for 24 h. Cell viability was measured using ATPlite. In FIG. 24C HeLa Tet-On-Bcl-B (HTO2) cells were treated with or without doxacycline as above. Compounds were then added at the indicated concentrations, and cell viability was measured 24 h later using ATPlite. The data shown represent mean±standard deviation (n=3).
HeLa Tet-On-Bcl-B cells were generated by stably transfecting the HeLa Tet-On cell line (Clontech, Mountain View, Calif.) with a pTRE2hyg vector (Clontech) containing the Bcl-B gene, using lipofectAMINE PLUS (Invitrogen, Carlsbad, Calif.). Briefly, cells were seeded overnight and transfected at 50% confluency for 3 h. After 24 h, the cells were re-seeded at <10% confluence and cultured in media (DMEM with 10% Tet System Approved FBS (Clontech)) containing G418 (100 μg/mL) and hygromycin B (300 μg/mL) for pTet-On and pTRE2hyg/Bcl-B plasmid maintenance, respectively. Positive foci resistant to both antibiotics were expanded. Colonies were then cultured in the presence or absence of doxycycline (Clontech, 1 μg/mL) for 16 h, and induced Bcl-B expression was confirmed by Western blot analysis. A previously developed polyclonal Bcl-B antibody^17 and an Hsc70 antibody (for protein concentration comparison; Santa Cruz Biotechnology, Santa Cruz, Calif.) were used.
(§2) Cells were seeded in 96-well plates at 5,000 cells/well in 100 μL of growth medium and allowed to incubate for 24 h. Afterwards, cells were incubated in the presence or absence of doxycycline (1 μg/mL) for another 24 h (to induce Bcl-B expression). Compounds were then added, as indicated, in a volume of 5 μL. The next day, cell viability was measured using the ATPlite Luminescence ATP Detection System (PerkinElmer, Waltham, Mass.) according to the manufacturer's specifications.

HeLa Tet-On (HTO1) cells = assay: Cell viability (ATPlite) in control HeLa Tet-On cells; assay type: cell-based; conditions: cells do not express Bcl-B; result in words
Protocol: as §1, §2

GST-Bfl-1 = target: T1, GST-Bfl-1 (Homo sapiens, UniProt Q16548); assay: FITC-TR3-9-r8 direct binding fluorescence polarization assay, Bfl-1; conditions: FIG. 2B; result in words
T1 construct: lacking their C-terminal transmembrane domains (about the last 20 amino acids) (“ΔTM”); made in house; host or cells: XL-1 Blue E. coli, pGEX 4T-1
T1 sequence (Q16548 1-155 limits assumed): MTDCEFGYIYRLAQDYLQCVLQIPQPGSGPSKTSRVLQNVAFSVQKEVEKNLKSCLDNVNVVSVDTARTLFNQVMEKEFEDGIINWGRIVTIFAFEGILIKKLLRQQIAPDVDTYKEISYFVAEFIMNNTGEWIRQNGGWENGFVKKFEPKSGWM

GST-Bcl-XL = target: T2, GST-Bcl-XL (Homo sapiens, UniProt Q07817); assay: FITC-TR3-9-r8 direct binding fluorescence polarization assay, Bcl-XL; conditions: FIG. 2A; result in words
T2 construct: lacking their C-terminal transmembrane domains (about the last 20 amino acids) (“ΔTM”); made in house; host or cells: XL-1 Blue E. coli, pGEX 4T-1
T2 sequence (Q07817 1-212 limits assumed): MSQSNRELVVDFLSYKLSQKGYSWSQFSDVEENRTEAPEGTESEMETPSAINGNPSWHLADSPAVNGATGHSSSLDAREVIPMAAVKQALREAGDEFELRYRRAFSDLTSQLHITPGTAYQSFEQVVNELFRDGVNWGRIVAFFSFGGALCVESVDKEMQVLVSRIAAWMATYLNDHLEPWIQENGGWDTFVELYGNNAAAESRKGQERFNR

GST-Bcl-W = target: T3, GST-Bcl-W (Homo sapiens, UniProt Q92843); assay: FITC-TR3-9-r8 direct binding fluorescence polarization assay, Bcl-W; conditions: FIG. 2B; result in words
T3 construct: GST-fusion proteins containing ΔTM versions of Bcl-2, Bcl-XL, Bfl-1, Mcl-1, Bcl-W, and Bcl-B; made in house
T3 sequence (Q92843 1-173 limits assumed): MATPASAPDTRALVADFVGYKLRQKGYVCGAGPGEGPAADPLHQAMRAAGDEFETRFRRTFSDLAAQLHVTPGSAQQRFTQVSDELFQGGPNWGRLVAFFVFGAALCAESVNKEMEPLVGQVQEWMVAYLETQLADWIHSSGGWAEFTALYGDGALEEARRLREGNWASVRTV

GST-Bcl-B = target: T4, GST-Bcl-B (Homo sapiens, UniProt Q9HD36); assay: FITC-TR3-r8 direct binding fluorescence polarization assay, Bcl-B; set-up: their C-terminal transmembrane domains (˜20 amino acids) were deleted to enhance protein solubility; made in house; host or cells: E. coli (BL21 Star (DE3); XL-1 Blue), pGEX-4T-1; conditions: FIG. 2A; result in words
T4 sequence (Q9HD36 1-182 limits assumed): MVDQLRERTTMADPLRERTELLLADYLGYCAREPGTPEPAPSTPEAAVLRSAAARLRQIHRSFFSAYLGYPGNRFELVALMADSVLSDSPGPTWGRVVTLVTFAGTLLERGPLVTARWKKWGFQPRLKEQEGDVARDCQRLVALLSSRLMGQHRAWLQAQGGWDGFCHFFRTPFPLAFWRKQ

GST-Bcl-2 = GST-Bcl-2 (Homo sapiens, UniProt P10415); assay: FITC-TR3-9-r8 direct binding fluorescence polarization assay, Bcl-2; set-up: their C-terminal transmembrane domains (˜20 amino acids) were deleted to enhance protein solubility; made in house; host or cells: E. coli (BL21 Star (DE3); XL-1 Blue), pGEX-4T-1; conditions: FIG. 2A; result in words
GST-Bcl-2, sequence (P10415 1-218 limits assumed): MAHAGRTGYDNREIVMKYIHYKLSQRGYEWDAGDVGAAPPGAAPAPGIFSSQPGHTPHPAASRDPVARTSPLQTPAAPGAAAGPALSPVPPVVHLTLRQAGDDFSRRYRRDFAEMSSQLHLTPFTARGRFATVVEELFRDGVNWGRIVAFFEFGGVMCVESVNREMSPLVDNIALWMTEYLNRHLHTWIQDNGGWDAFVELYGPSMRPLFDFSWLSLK

Row | SMILES | effect of doxycycline-induced Bcl-B expression on compound-induced cell death [1] | effect of doxycycline on compound-induced cell death in control cells (HeLa Tet-On (HTO1) cells) | binding to GST-Bfl-1 (GST-Bfl-1) | binding to GST-Bcl-XL (GST-Bcl-XL) | binding to GST-Bcl-W (GST-Bcl-W) | binding to GST-Bcl-B (GST-Bcl-B) | binding to GST-Bcl-2 (GST-Bcl-2)
1 | CN[C@@H]1C[C@H]2O[C@@](C)([C@@H]1OC)n1c3ccccc3c3c4c(c5c6ccccc6n2c5c31)C(=O)NC4 [staurosporine] | more resistant to staurosporine-induced cell death | the same level of staurosporine-induced cell death whether or not doxycycline was added |  |  |  |  | 
2 | CC(C)C[C@H](NC(=O)[C@H](CC(C)C)NC(=O)[C@H](CO)NC(=O)[C@H](Cc1c[nH]cn1)NC(=O)[C@H](CC(C)C)NC(=O)[C@H](CO)NC(=O)[C@H](CCCNC(=N)N)NC(=O)[C@H](CO)NC(=O)[C@H](Cc1ccccc1)NC(=O)CCCCCNC(=S)Nc1ccc2c(c1)C(=O)OC21c2ccc(O)cc2Oc2cc(O)ccc21)C(=O)NCC(=O)NCCCCCC(=O)N[C@H](CCCNC(=N)N)C(=O)N[C@H](CCCNC(=N)N)C(=O)N[C@H](CCCNC(=N)N)C(=O)N[C@H](CCCNC(=N)N)C(=O)N[C@H](CCCNC(=N)N)C(=O)N[C@H](CCCNC(=N)N)C(=O)N[C@H](CCCNC(=N)N)C(=O)N[C@H](CCCNC(=N)N)C(N)=O [FITC-TR3-9-r8] |  |  | Binding to GST-Bfl-1 | but not GST-Bcl-XL | but not GST-Bcl-W | Binding to GST-Bcl-2 and GST-Bcl-B | Binding to GST-Bcl-2
